Patent publication US20250114374A1, “BCL-2 INHIBITORS” (Newave Pharmaceutical Inc., priority 2021, published 2025)
Like-named read-outs stand apart in the source and are kept apart here.

Tested on: RS4; 11 with G101V mutation
Experiment: In vitro anti-proliferation assay (ATPlite luminescence) in BCL-2-dependent ALL cell line RS4;11 with G101V mutation
Assay type: cell-based
Settings: read-out: RS411-G101V IC50
In short: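 IC50 came from luminescent ATP quantification (ATPlite) following cell lysis. Compound dose ranges were applied for roughly 72 h to about 1×10^4 G101V-mutant RS4;11 cells per well, in 10% FBS medium.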

[1] = cellular anti-proliferative IC50, about 72 hours, medium with 10% FBS, ATPlite

Structure (SMILES) | IC50 (Homo sapiens, RS4-11, 72 h) [nM] | IC50 [1] [nM]
CC(C)Oc1ccccc1[C@@H]1CN([C@@H]2COCc3cc(F)c(F)cc32)CCN1C1CC2(CCN(c3ccc(C(=O)NS(=O)(=O)c4cc5c(c([N+](=O)[O-])c4)N[C@H](C4CCOCC4)CO5)c(N4c5cc6cc[nH]c6nc5O[C@H]5COCC[C@@H]54)c3)CC2)C1 [Example 217, 4-(2-((R)-4-((S)-6,7-difluoroisochroman-4-yl)-2-(2-isopropoxyphenyl)piperazin-1-yl)-7-azaspiro[3.5]nonan-7-yl)-N-(((R)-5-nitro-3-(tetrahydro-2H-pyran-4-yl)-3,4-dihydro-2H-benzo[b][1,4]oxazin-7-yl)sulfonyl)-2-((5aS,9aR)-6,7,9,9a-tetrahydro-1H-pyrano[3,4-b]pyrrolo[3′,2′:5,6]pyrido[3,2-e][1,4]oxazin-5(5aH)-yl)benzamide] | 94.9 | 
CC(C)Oc1ccccc1[C@@H]1CN([C@H]2CCOc3nc(N4CCOC[C@@H]4C)c(F)cc32)CCN1C1CC2(CCN(c3ccc(C(=O)NS(=O)(=O)c4cc5c(c([N+](=O)[O-])c4)N[C@H](C4CCOCC4)CO5)c(N4c5cc6cc[nH]c6nc5O[C@H]5COCC[C@@H]54)c3)CC2)C1 [Example 218, 4-(2-((R)-4-((S)-6-fluoro-7-((S)-3-methylmorpholino)-3,4-dihydro-2H-pyrano[2,3-b]pyridin-4-yl)-2-(2-isopropoxyphenyl)piperazin-1-yl)-7-azaspiro[3.5]nonan-7-yl)-N-(((R)-5-nitro-3-(tetrahydro-2H-pyran-4-yl)-3,4-dihydro-2H-benzo[b][1,4]oxazin-7-yl)sulfonyl)-2-((5aS,9aR)-6,7,9,9a-tetrahydro-1H-pyrano[3,4-b]pyrrolo[3′,2′:5,6]pyrido[3,2-e][1,4]oxazin-5(5aH)-yl)benzamide] | 121 | 
CC(C)Oc1ccccc1[C@@H]1CN([C@@H]2CCOc3nc(N4CCOC[C@@H]4C)c(F)cc32)CCN1C1CC2(CCN(c3ccc(C(=O)NS(=O)(=O)c4cc5c(c([N+](=O)[O-])c4)N[C@H](C4CCOCC4)CO5)c(N4c5cc6cc[nH]c6nc5O[C@H]5COCC[C@@H]54)c3)CC2)C1 [Example 219, 4-(2-((R)-4-((R)-6-fluoro-7-((S)-3-methylmorpholino)-3,4-dihydro-2H-pyrano[2,3-b]pyridin-4-yl)-2-(2-isopropoxyphenyl)piperazin-1-yl)-7-azaspiro[3.5]nonan-7-yl)-N-(((R)-5-nitro-3-(tetrahydro-2H-pyran-4-yl)-3,4-dihydro-2H-benzo[b][1,4]oxazin-7-yl)sulfonyl)-2-((5aS,9aR)-6,7,9,9a-tetrahydro-1H-pyrano[3,4-b]pyrrolo[3′,2′:5,6]pyrido[3,2-e][1,4]oxazin-5(5aH)-yl)benzamide] | 56.3 | 
CC(C)Oc1ccccc1[C@@H]1CN([C@@H]2COc3c(F)cc(F)cc3C2)CCN1C1CC2(CCN(c3ccc(C(=O)NS(=O)(=O)c4cc5c(c([N+](=O)[O-])c4)N[C@H](C4CCOCC4)CO5)c(N4c5cc6cc[nH]c6nc5O[C@H]5COCC[C@@H]54)c3)CC2)C1 [Example 220, 4-(2-((R)-4-((S)-6,8-difluorochroman-3-yl)-2-(2-isopropoxyphenyl)piperazin-1-yl)-7-azaspiro[3.5]nonan-7-yl)-N-(((R)-5-nitro-3-(tetrahydro-2H-pyran-4-yl)-3,4-dihydro-2H-benzo[b][1,4]oxazin-7-yl)sulfonyl)-2-((5aS,9aR)-6,7,9,9a-tetrahydro-1H-pyrano[3,4-b]pyrrolo[3′,2′:5,6]pyrido[3,2-e][1,4]oxazin-5(5aH)-yl)benzamide] | 261 | 
CC(C)Oc1ccccc1[C@@H]1CN([C@H]2COc3c(F)cc(F)cc3C2)CCN1C1CC2(CCN(c3ccc(C(=O)NS(=O)(=O)c4cc5c(c([N+](=O)[O-])c4)N[C@H](C4CCOCC4)CO5)c(N4c5cc6cc[nH]c6nc5O[C@H]5COCC[C@@H]54)c3)CC2)C1 [Example 221, 4-(2-((R)-4-((R)-6,8-difluorochroman-3-yl)-2-(2-isopropoxyphenyl)piperazin-1-yl)-7-azaspiro[3.5]nonan-7-yl)-N-(((R)-5-nitro-3-(tetrahydro-2H-pyran-4-yl)-3,4-dihydro-2H-benzo[b][1,4]oxazin-7-yl)sulfonyl)-2-((5aS,9aR)-6,7,9,9a-tetrahydro-1H-pyrano[3,4-b]pyrrolo[3′,2′:5,6]pyrido[3,2-e][1,4]oxazin-5(5aH)-yl)benzamide] | 130 | 
CC(C)Oc1ccccc1[C@@H]1CN(c2ccccc2)CCN1C1CC2(CCN(c3ccc(C(=O)NS(=O)(=O)c4cc5c(c([N+](=O)[O-])c4)N[C@H](C4CCOCC4)CO5)c(N4c5cc6cc[nH]c6nc5O[C@H]5COCC[C@@H]54)c3)CC2)C1 [Example 222, 2-[(3R,8S)-2,5-dioxa-9,15,17-triazatetracyclo[8.7.0.0^{3,8}.0^{12,16}]heptadeca-1(10),11,13,16-tetraen-9-yl]-4-{2-[(2R)-2-(2-isopropoxyphenyl)-4-phenylpiperazin-1-yl]-7-azaspiro[3.5]nonan-7-yl}-N-[(3R)-5-nitro-3-(oxan-4-yl)-3,4-dihydro-2H-1,4-benzoxazin-7-ylsulfonyl]benzamide] |  | 240
CC(C)Oc1ccccc1[C@@H]1CN(c2ccncc2)CCN1C1CC2(CCN(c3ccc(C(=O)NS(=O)(=O)c4cc5c(c([N+](=O)[O-])c4)N[C@H](C4CCOCC4)CO5)c(N4c5cc6cc[nH]c6nc5O[C@H]5COCC[C@@H]54)c3)CC2)C1 [Example 223, 4-(2-((R)-2-(2-isopropoxyphenyl)-4-(pyridin-4-yl)piperazin-1-yl)-7-azaspiro[3.5]nonan-7-yl)-N-(((R)-5-nitro-3-(tetrahydro-2H-pyran-4-yl)-3,4-dihydro-2H-benzo[b][1,4]oxazin-7-yl)sulfonyl)-2-((5aS,9aR)-6,7,9,9a-tetrahydro-1H-pyrano[3,4-b]pyrrolo[3′,2′:5,6]pyrido[3,2-e][1,4]oxazin-5(5aH)-yl)benzamide] | 223 | 
CC(C)Oc1ccccc1[C@@H]1CN(c2cccnc2)CCN1C1CC2(CCN(c3ccc(C(=O)NS(=O)(=O)c4cc5c(c([N+](=O)[O-])c4)N[C@H](C4CCOCC4)CO5)c(N4c5cc6cc[nH]c6nc5O[C@H]5COCC[C@@H]54)c3)CC2)C1 [Example 224, 2-[(3R,8S)-2,5-dioxa-9,15,17-triazatetracyclo[8.7.0.0^{3,8}.0^{12,16}]heptadeca-1(10),11,13,16-tetraen-9-yl]-4-{2-[(2R)-2-(2-isopropoxyphenyl)-4-(pyridin-3-yl)piperazin-1-yl]-7-azaspiro[3.5]nonan-7-yl}-N-[(3R)-5-nitro-3-(oxan-4-yl)-3,4-dihydro-2H-1,4-benzoxazin-7-ylsulfonyl]benzamide] |  | 136
CC(C)Oc1ccccc1[C@@H]1CN(c2ccccn2)CCN1C1CC2(CCN(c3ccc(C(=O)NS(=O)(=O)c4cc5c(c([N+](=O)[O-])c4)N[C@H](C4CCOCC4)CO5)c(N4c5cc6cc[nH]c6nc5O[C@H]5COCC[C@@H]54)c3)CC2)C1 [Example 225, 2-[(3R,8S)-2,5-dioxa-9,15,17-triazatetracyclo[8.7.0.0^{3,8}.0^{12,16}]heptadeca-1(10),11,13,16-tetraen-9-yl]-4-{2-[(2R)-2-(2-isopropoxyphenyl)-4-(pyridin-2-yl)piperazin-1-yl]-7-azaspiro[3.5]nonan-7-yl}-N-[(3R)-5-nitro-3-(oxan-4-yl)-3,4-dihydro-2H-1,4-benzoxazin-7-ylsulfonyl]benzamide] |  | 180
CC(C)Oc1ccccc1[C@@H]1CN(C2CCC(C)(C)CC2)CCN1C1CC2(CCN(c3ccc(C(=O)NS(=O)(=O)c4cc5c(c([N+](=O)[O-])c4)N[C@H](C4CCOCC4)CO5)c(N4c5cc6cc[nH]c6nc5O[C@H]5COCC[C@@H]54)c3)CC2)C1 (stereo partly drawn) [Example 226, 4-{2-[(2R)-4-(4,4-dimethylcyclohexyl)-2-(2-isopropoxyphenyl)piperazin-1-yl]-7-azaspiro[3.5]nonan-7-yl}-2-[(3R,8S)-2,5-dioxa-9,15,17-triazatetracyclo[8.7.0.0^{3,8}.0^{12,16}]heptadeca-1(10),11,13,16-tetraen-9-yl]-N-[(3R)-5-nitro-3-(oxan-4-yl)-3,4-dihydro-2H-1,4-benzoxazin-7-ylsulfonyl]benzamide] |  | 62.6
CC(C)Oc1ccccc1[C@@H]1CN(Cc2ccc(F)c(F)c2)CCN1C1CC2(CCN(c3cc(N4c5cc6cc[nH]c6nc5O[C@H]5COCC[C@@H]54)c(C(=O)NS(=O)(=O)c4cc5c(c([N+](=O)[O-])c4)N[C@H](C4CCOCC4)CO5)cc3F)CC2)C1 [Example 227, 4-{2-[(2R)-4-[(3,4-difluorophenyl)methyl]-2-(2-isopropoxyphenyl)piperazin-1-yl]-7-azaspiro[3.5]nonan-7-yl}-2-[(3R,8S)-2,5-dioxa-9,15,17-triazatetracyclo[8.7.0.0^{3,8}.0^{12,16}]heptadeca-1(10),11,13,16-tetraen-9-yl]-5-fluoro-N-[(3R)-5-nitro-3-(oxan-4-yl)-3,4-dihydro-2H-1,4-benzoxazin-7-ylsulfonyl]benzamide] |  | 119
CC(C)Oc1ccccc1[C@@H]1CN(Cc2ccc(F)c(F)c2)CCN1C1CC2(CCN(c3ncc(C(=O)NS(=O)(=O)c4cc5c(c([N+](=O)[O-])c4)N[C@H](C4CCOCC4)CO5)c(N4c5cc6cc[nH]c6nc5O[C@H]5COCC[C@@H]54)c3F)CC2)C1 [Example 228, 6-{2-[(2R)-4-[(3,4-difluorophenyl)methyl]-2-(2-isopropoxyphenyl)piperazin-1-yl]-7-azaspiro[3.5]nonan-7-yl}-4-[(3R,8S)-2,5-dioxa-9,15,17-triazatetracyclo[8.7.0.0^{3,8}.0^{12,16}]heptadeca-1(10),11,13,16-tetraen-9-yl]-5-fluoro-N-[(3R)-5-nitro-3-(oxan-4-yl)-3,4-dihydro-2H-1,4-benzoxazin-7-ylsulfonyl]pyridine-3-carboxamide] |  | 202
